Assay results reported in the NIST ThermoML archive (doi:10.1021/je900407u).

Assay: isobaric coefficient of expansion
Settings: Liquid, Micro DSCII

CCCCn1cc[n+](C)c1.COS(=O)(=O)[O-] [1-butyl-3-methylimidazolium methyl sulfate]
isobaric coefficient of expansion
Settings | 5000 kPa | 10000 kPa | 15000 kPa | 20000 kPa | 25000 kPa | 30000 kPa | 35000 kPa | 40000 kPa | 45000 kPa | 50000 kPa
278.15 K | 0.000563 1/K | 0.000556 1/K | 0.00055 1/K | 0.000545 1/K | 0.00054 1/K | 0.000535 1/K | 0.000531 1/K | 0.000527 1/K | 0.000521 1/K | 0.000516 1/K
288.15 K | 0.000557 1/K | 0.00055 1/K | 0.000543 1/K | 0.000539 1/K | 0.000537 1/K | 0.00053 1/K | 0.000527 1/K | 0.00052 1/K | 0.000514 1/K | 0.000513 1/K
298.15 K | 0.000549 1/K | 0.000547 1/K | 0.000539 1/K | 0.000533 1/K | 0.000529 1/K | 0.000524 1/K | 0.000518 1/K | 0.000513 1/K | 0.00051 1/K | 0.000507 1/K
308.15 K | 0.000544 1/K | 0.000538 1/K | 0.000533 1/K | 0.000527 1/K | 0.000522 1/K | 0.000517 1/K | 0.000512 1/K | 0.000509 1/K | 0.000504 1/K | 0.0005 1/K
318.15 K | 0.000538 1/K | 0.000534 1/K | 0.00053 1/K | 0.000522 1/K | 0.000517 1/K | 0.000513 1/K | 0.000508 1/K | 0.000504 1/K | 0.000499 1/K | 0.000494 1/K
328.15 K | 0.000533 1/K | 0.000529 1/K | 0.000524 1/K | 0.000519 1/K | 0.000512 1/K | 0.000508 1/K | 0.000503 1/K | 0.000498 1/K | 0.000493 1/K | 0.000489 1/K
338.15 K | 0.00053 1/K | 0.000525 1/K | 0.000521 1/K | 0.000514 1/K | 0.000508 1/K | 0.000506 1/K | 0.000499 1/K | 0.000496 1/K | 0.000491 1/K | 0.000489 1/K
348.15 K | 0.000527 1/K | 0.000524 1/K | 0.000517 1/K | 0.000512 1/K | 0.000506 1/K | 0.000502 1/K | 0.000499 1/K | 0.000494 1/K | 0.00049 1/K | 0.000486 1/K
